# Results: US4816471A, “Substituted heterocyclic benzamides, methods of preparing them and their application as anti-emetics” (Societe d'Etudes Scientifiques et Industrielles de …, priority 1978, dated 1989)
# Where a name gives a salt, the structure may show the parent alone.
# Legend:
# [1] = test system: anti-emetic power relative to apomorphine in dogs; assay: anti-emetic power relative to apomorphine in dogs by the method of Chen and Ensor (subcutaneous administration); assay type: in vivo; conditions: Canis lupus familiaris, sc, Table 1, s.c. 30 minutes before apomorphine 100 ug/kg s.c.
# Description: (§1) The pharmacodynamic tests on the compounds of this invention, and particularly a study of their anti-emetic power have shown strong activity on the nervous system as apomorphine antagonists. […] In accordance with the above-mentioned procedures, the compounds of the invention were administered subcutaneously 30 minutes before the administration of apomorphine, which was administered subcutaneously in a dose of 100 ug/kg.
# [2] = acute toxicity in the mouse; conditions: in vivo
# Description: The acute toxicity of the compounds of the invention has been studied in the mouse. The LD50 's are set out in the following Table 3. […] This characteristic is highly desirable because the possibility of toxic effects due to the administration of therapeutic doses is thereby minimized.
# [3] = test system: biting sterotypes induced by apomorphine; assay: potentiation of biting sterotypes induced by apomorphine in mice, Pedeson's method; assay type: in vivo; conditions: Table 6, apomorphine 10 mg/kg, interperitoneal; for ED50: Mus musculus, ip
# Description: The compounds were also tested for potentiation of biting sterotypes induced by apomorphine (10 (mg/kg) in mice, under interperitoneal administration in accordance with Pedeson's method in Brit J. Pharmacol. 1968, 34 (1), 219-220 with the following results: […]
# [4] = test system: stereotypes induced by apomorphine; assay: potentiation of stereotypes induced by apomorphine in rats; assay type: in vivo; conditions: Table 7, apomorphine 0.25 mg/kg, intraperitoneal
# Description: The compound of Example 2 was tested against sulpiride for potentiation of stereotypes induced by apomorphine (0.25 mg/kg) in rats under intraperitoneal administration with the following results: […]
# [5] = test system: anti-emetic power relative to apomorphine in dogs; assay: anti-emetic ED50 under oral administration (procedure of Example 29); assay type: in vivo; conditions: Canis lupus familiaris, Table 2
# Description: as §1
# Compounds SLC-036, 77205 and 77149 are disclosed in U.S. Pat. No. 4,172,143 for comparison purposes, as Examples 10, 33 and 37 therein. The results for those compounds are reported in Table IX of the '143 Patent and are believed to represent results from oral administration.
# Pharmacological tests were carried out under oral administration to determine anti-emetic ED50 in accordance with the procedure of Example 29 with the following results: […]
# solubility in water = assay type: physicochemical; conditions: crystals, base
# [6] = test system: chewing stereotypes induced by apomorphine; assay: antagonism to chewing stereotypes induced by apomorphine in rats, method of Janssen; assay type: in vivo; conditions: Table 4, apomorphine 1.25 mg/kg; for ED50: Rattus norvegicus, sc; for % antagonism to chewing stereotypes induced by apomorphine: s.c., at 200
# Description: The neurological activity of the compounds of the invention was compared to the activity of prior art compounds in U.S. Pat. No. 4,172,143 and with a standard in this field, Sulpiride, N-[(1-ethylpyrrolidinyl-2)methyl]-2-methoxy-5 sulphamoyl benzamide. The compounds were tested for antagonism to chewing stereotypes induced by apomorphine (1.25 mg/kg in rats, according to the method of Janssen in Arzn. Forsch. 1960-10, 1003-5, under subcutaneous administration and the results were as follows: […]
# [7] = test system: chewing stereotypes induced by dexamphetamine; assay: antagonism to chewing stereotypes induced by dexamphetamine in rats, Janssen's method; assay type: in vivo; conditions: Table 5, dexamphetamine 10 mg/kg; for ED50: Rattus norvegicus, sc; for % antagonism to chewing stereotypes induced by dexamphetamine: s.c., at 100 mg/kg
# Description: The compounds were also tested for antagonism to chewing stereotypes induced by dexamphetamine (10 mg/kg) in rats, by Janssen's method in Arzn. Forsch. 1961, 11, 932-938 under subcutaneous administration with the following results: […]
# [8] = test system: anti-emetic power relative to apomorphine in dogs; conditions: cited from earlier work; for ED50 (Prior Art Compounds, Results Reported in U.S. Pat No. 4,172,143): Table 1, method of administration believed oral; for ED50 (oral): Table 2, prior art compounds, same values as reported in U.S. Pat. No. 4,172,143
compound,measurement,setting,value
"CC[S+]([O-])c1cc(C(=O)NCC2CCCN2CC2CC2)c(OC)cc1N (centres unmarked) [Example 1, N-(1-cyclopropylmethyl 2-pyrrolidinylmethyl)-2-methoxy 4-amino 5-ethylsulphinyl benzamide]",ED50,[1],0.0007 mg/kg
"CCS(=O)(=O)c1cc(C(=O)NCC2CCCN2CC2CC2)c(OC)cc1N (centres unmarked) [Example 2, N-(1-cyclopropyl-methyl-2-pyrrolidinyl-methyl)-2-methoxy-4-amino-5-ethylsulphonyl-benzamide]",LD50,[2]; I.V. (intravenous),52.5 to 54.6 mg/kg
same,LD50,[2]; P.O. (oral),1260 to 1320 mg/kg
same,LD50,"[2]; ip, I.P. (intraperitoneal)",204 to 220 mg/kg
same,LD50,"[2]; sc, S.C. (subcutaneous)",380 to 396 mg/kg
same,ED50,[1],0.0004 mg/kg
same,ED50,[3],1.6 mg/kg
same,ED50,"[4]; Rattus norvegicus, ip",2.4 mg/kg
same,ED50,[5],0.0009 mg/kg
"CNS(=O)(=O)c1cc(C(=O)NCC2CCCN2CC2CC2)c(OC)cc1N (centres unmarked) [Example 3, N-(1-cyclopropylmethyl 2-pyrrolidinylmethyl)-2-methoxy 4-amino 5-methylsulphamoyl benzamide]",ED50,[1],0.0004 mg/kg
"COc1cc(S(N)(=O)=O)cc(C(=O)NCC2CCCN2CC2CC2)c1OC (centres unmarked) [Example 4, N-(1-cyclopropylmethyl-2-pyrrolidinylmethyl)-2,3-dimethoxy-5-sulphamoyl benzamide]",LD50,[2]; I.V. (intravenous),60 to 64.5 mg/kg
same,LD50,[2]; P.O. (oral),2280 mg/kg
same,LD50,"[2]; ip, I.P. (intraperitoneal)",372 to 403 mg/kg
same,LD50,"[2]; sc, S.C. (subcutaneous)",930 mg/kg
same,ED50,[1],0.0022 mg/kg
same,solubility in water,solubility in water,insoluble
"CNS(=O)(=O)c1cc(OC)c(OC)c(C(=O)NCC2CCCN2CC2CC2)c1 (centres unmarked) [Example 5, N-(1-cyclopropylmethyl 2-pyrrolidinylmethyl)-2,3-dimethoxy 5-methylsulphamoyl benzamide]",ED50,[1],0.0005 mg/kg
"COc1cc(S(N)(=O)=O)cc(C(=O)NCC2CCCN2CC2=CCCCC2)c1OC (centres unmarked) [Example 6, N-(1-cyclohexenyl-methyl-2-pyrrolidylmethyl)-2,3-dimethoxy 5-sulphamoyl benzamide]",mortality,"[2]; ip, I.P., at 240 mg/kg, read-out: 60% at 240 mg/kg (acute toxicity)",60%
same,ED50,[1],0.0028 mg/kg
same,ED50,[3],2.6 mg/kg
same,ED50,[6],40 mg/kg
"CCS(=O)(=O)c1cc(C(=O)NCC2CCCN2CC2CCCCC2)c(OC)cc1N (centres unmarked) [Example 8, N-(1-cyclohexylmethyl-2-pyrrolidinyl-methyl)-2-methoxy-4-amino-5-ethylsulphonyl-benzamide]",ED50,[7],15.4 mg/kg
same,LD50,[2]; I.V. (intravenous),37 to 40.8 mg/kg
same,LD50,[2]; P.O. (oral),348 to 380 mg/kg
same,LD50,"[2]; ip, I.P. (intraperitoneal)",133 to 145 mg/kg
same,LD50,"[2]; sc, S.C. (subcutaneous)",336 to 342 mg/kg
same,ED50,[1],0.002 mg/kg
same,ED50,[6],33 mg/kg
"CCS(=O)(=O)c1cc(C(=O)NCC2CCCN2CC2=CCCC2)c(OC)cc1N (centres unmarked) [Example 10, N-(1-cyclopentenylmethyl 2-pyrrolidinylmethyl)-2-methoxy 4-amino 5-ethylsulphonyl benzamide]",ED50,[7],14 mg/kg
same,LD50,[2]; I.V. (intravenous),41.8 to 42 mg/kg
same,LD50,[2]; P.O. (oral),980 to 990 mg/kg
same,LD50,"[2]; ip, I.P. (intraperitoneal)",204 to 212 mg/kg
same,LD50,"[2]; sc, S.C. (subcutaneous)",330 to 360 mg/kg
same,ED50,[1],0.0013 mg/kg
"CCS(=O)(=O)c1cc(C(=O)NCC2CCCN2CC2=CCCCC2)c(OC)cc1N (centres unmarked) [Example 11, N-[1-(1-cyclohexenylmethyl)-2-pyrrolidinylmethyl]-2-methoxy 4-amino 5-ethylsulphonyl benzamide, phosphate]",ED50,[7],5.4 mg/kg
same,LD50,[2]; I.V. (intravenous),29.5 to 31.8 mg/kg
same,LD50,[2]; P.O. (oral),510 to 555 mg/kg
same,LD50,"[2]; ip, I.P. (intraperitoneal)",180 to 181 mg/kg
same,LD50,"[2]; sc, S.C. (subcutaneous)",343 to 360 mg/kg
same,ED50,[1],0.00057 mg/kg
same,ED50,[6],13.7 mg/kg
"CNS(=O)(=O)c1cc(OC)c(OC)c(C(=O)NCC2CCCN2CC2=CCCCC2)c1 (centres unmarked) [Example 12, N-(1-cyclohexenylmethyl 2-pyrrolidinylmethyl) 2,3-dimethoxy 5-methylsulphamoyl benzamide]",ED50,[7],1.5 mg/kg
same,LD50,[2]; I.V. (intravenous),57.8 to 62 mg/kg
same,LD50,[2]; P.O. (oral),540 to 560 mg/kg
same,LD50,"[2]; ip, I.P. (intraperitoneal)",198 to 200 mg/kg
same,LD50,"[2]; sc, S.C. (subcutaneous)",297 to 319 mg/kg
same,ED50,[1],0.00115 mg/kg
same,ED50,[3],0.33 mg/kg
same,ED50,[6],4 mg/kg
"CNS(=O)(=O)c1ccc(OC)c(C(=O)NCC2CCCN2CC2=CCCCCC2)c1 (centres unmarked) [Example 13, N-(1-cycloheptenylmethyl 2-pyrrolidinylmethyl) 2-methoxy 5-methylsulphamoylbenzamide]",ED50,[7],0.54 mg/kg
same,LD50,[2]; I.V. (intravenous),45.5 to 48 mg/kg
same,LD50,[2]; P.O. (oral),312 to 330 mg/kg
same,LD50,"[2]; ip, I.P. (intraperitoneal)",128 to 140 mg/kg
same,LD50,"[2]; sc, S.C. (subcutaneous)",322 to 336 mg/kg
same,ED50,[1],0.0005 mg/kg
same,ED50,[6],1.5 mg/kg
"COc1ccc(S(N)(=O)=O)cc1C(=O)NCC1CCCN1CC1=CCCCC1 (centres unmarked) [Example 14, N-[1(1-cyclohexenylmethyl) 2-pyrrolidinylmethyl]2-methoxy 5-sulphamoyl benzamide]",ED50,[7],10 mg/kg
same,LD50,[2]; I.V. (intravenous),82.5 to 85.5 mg/kg
same,LD50,[2]; P.O. (oral),525 to 542 mg/kg
same,LD50,"[2]; ip, I.P. (intraperitoneal)",294 to 317 mg/kg
same,LD50,"[2]; sc, S.C. (subcutaneous)",630 to 640 mg/kg
same,ED50,[1],0.00085 mg/kg
same,ED50,[6],16.4 mg/kg
same,ED50,[5],0.0012 mg/kg
"CNS(=O)(=O)c1ccc(OC)c(C(=O)NCC2CCCN2CC2=CCCCC2)c1 (centres unmarked) [Example 15, N-(1-cyclohexenylmethyl 2-pyrrolidinylmethyl) 2-methoxy 5-methylsulphamoyl benzamide]",ED50,[7],0.78 mg/kg
same,LD50,[2]; I.V. (intravenous),44.2 to 46.5 mg/kg
same,LD50,[2]; P.O. (oral),540 to 558 mg/kg
same,LD50,"[2]; ip, I.P. (intraperitoneal)",204 to 208 mg/kg
same,LD50,"[2]; sc, S.C. (subcutaneous)",462 to 494 mg/kg
same,ED50,[1],0.00021 mg/kg
same,ED50,[6],1.22 mg/kg
same,ED50,[5],0.0011 mg/kg
"CCS(=O)(=O)c1cc(OC)c(OC)c(C(=O)NCC2CCCN2CC2CC2)c1 (centres unmarked) [Example 16, N-(1-cyclopropylmethyl 2-pyrrolidinylmethyl) 2,3-dimethoxy 5-ethylsulphonylbenzamide, hydrochloride]",ED50,[7],1.34 mg/kg
same,LD50,[2]; I.V. (intravenous),92.9 to 97.2 mg/kg
same,LD50,[2]; P.O. (oral),588 to 598 mg/kg
same,LD50,"[2]; ip, I.P. (intraperitoneal)",303 to 338 mg/kg
same,LD50,"[2]; sc, S.C. (subcutaneous)",595 to 597 mg/kg
same,ED50,[3],0.25 mg/kg
same,ED50,[6],3.2 mg/kg
same,ED50,[5],0.00023 mg/kg
"COc1cc2[nH]nnc2cc1C(=O)NCC1CCCN1CC1=CCCCC1 (centres unmarked) [Example 22, N-(1-cyclohexenylmethyl 2-pyrrolidinylmethyl) 2-methoxy 4,5-azimido benzamide]",ED50,[1],0.002 mg/kg
"COc1ccc(S(=O)(=O)N(C)C)cc1C(=O)NCC1CCCN1CC1CC1 (centres unmarked) [Example 77149, N--(1cyclopropylmethyl 2pyrrolidinylmethyl)-2-methoxy-5-dimethylsulphamoyl benzamide]","ED50 (Prior Art Compounds, Results Reported in U.S. Pat No. 4,172,143)",[8],0.04 mg/kg
same,ED50 (oral),[8],0.04 mg/kg
"COc1ccc(S(N)(=O)=O)cc1C(=O)NCC1CCCN1CC1CCCCC1 (centres unmarked) [Example 77205, N--(1cyclohexylmethyl 2pyrrolidinylmethyl)-2-methoxy-5-sulphamoyl benzamide, reference compound]",ED50,[7],19 mg/kg
same,% antagonism to chewing stereotypes induced by apomorphine,[6],20%
same,"ED50 (Prior Art Compounds, Results Reported in U.S. Pat No. 4,172,143)",[8],0.014 mg/kg
same,ED50 (oral),[8],0.014 mg/kg
"COc1ccc(S(N)(=O)=O)cc1C(=O)NCC1CCCN1CC1CC1 (centres unmarked) [SLC-036, N--(1cyclopropylmethyl 2pyrrolidinylmethyl)-2-methoxy-5-sulphamoyl benzamide, reference compound]",% antagonism to chewing stereotypes induced by dexamphetamine,[7],0%
same,% antagonism to chewing stereotypes induced by apomorphine,[6],0%
same,"ED50 (Prior Art Compounds, Results Reported in U.S. Pat No. 4,172,143)",[8],0.037 mg/kg
same,ED50 (oral),[8],0.037 mg/kg
"CCN1CCCC1CNC(=O)c1cc(S(N)(=O)=O)ccc1OC (centres unmarked) [Sulpiride, N-[(1-ethylpyrrolidinyl-2)methyl]-2-methoxy-5 sulphamoyl benzamide, reference compound]",% antagonism to chewing stereotypes induced by dexamphetamine,[7],0%
same,% potentiation of biting sterotypes induced by apomorphine,[3]; at 4 mg/kg,12%
same,% antagonism to chewing stereotypes induced by apomorphine,[6],0%
same,% potentiation of stereotypes induced by apomorphine,[4]; at 8 mg/kg,30%
